In ChEMBL document CHEMBL1275379, “Indazolylpyrazolopyrimidine as highly potent B-Raf inhibitors with in vivo activity” (J Med Chem, 2010):
Active and inactive are the calls of the source. The rule behind the calls is not given here.

Assays:
[1] = biological target: Tyrosine-protein kinase Fes/Fps (Homo sapiens) (UniProt P07332); test: Inhibition of FES at 1 uM
[2] = biological target: T1, Angiopoietin-1 receptor (Homo sapiens, UniProt Q02763); conditions: 1 uM
Description: Inhibition of TEK at 1 uM

[3] = biological target: Fibroblast growth factor receptor 2 (Homo sapiens) (UniProt P21802); test: Inhibition of FGFR2 at 1 uM
[4] = biological target: Vascular endothelial growth factor receptor 2 (Homo sapiens) (UniProt P35968); test: Inhibition of KDR at 1 uM
[5] = tested on: Serine/threonine-protein kinase B-raf (Homo sapiens), P15056 [V600E]; test: Inhibition of BRAF V600E mutant in human A375 cells assessed as reduction of ERK phosphorylation; assay type: cell-based; conditions: A-375
[6] = Inhibition of MAP3K at 1 uM
[7] = biological target: Glycogen synthase kinase-3 beta (Homo sapiens) (UniProt P49841); test: Inhibition of GSK3B at 1 uM
[8] = biological target: Serine/threonine-protein kinase Sgk1 (Homo sapiens) (UniProt O00141); test: Inhibition of SGK at 1 uM
[9] = tested on: A-375; test: Growth inhibition of human A375 cells after 4 days by MTT assay; assay type: functional, cell-based; conditions: A-375, 96 h
[10] = Volume of distribution at steady state in nude mouse; assay type: ADME, organism-based; conditions: in vivo, read-out: Vdss
[11] = biological target: High affinity nerve growth factor receptor (Homo sapiens) (UniProt P04629); test: Inhibition of NTRK1 at 1 uM
[12] = biological target: Ribosomal protein S6 kinase beta-1 (Homo sapiens) (UniProt P23443); test: Inhibition of RPS6B1 at 1 uM
[13] = biological target: Fibroblast growth factor receptor 1 (Homo sapiens) (UniProt P11362); test: Inhibition of FGFR1 at 1 uM
[14] = biological target: RAF proto-oncogene serine/threonine-protein kinase (Homo sapiens, UniProt P04049); test: Inhibition of C-raf
[15] = biological target: Ephrin type-A receptor 1 (Homo sapiens, UniProt P21709); test: Inhibition of EPHA1
[16] = biological target: Serine/threonine-protein kinase Chk2 (Homo sapiens) (UniProt O96017); test: Inhibition of CHEK2 at 1 uM
[17] = biological target: Serine/threonine-protein kinase Nek2 (Homo sapiens) (UniProt P51955); test: Inhibition of NEK2 at 1 uM
[18] = biological target: Aurora kinase B (Homo sapiens) (UniProt Q96GD4); test: Inhibition of AURKB at 1 uM
[19] = biological target: Focal adhesion kinase 1 (PTK2) (Homo sapiens) (UniProt Q05397); test: Inhibition of PTK2 at 1 uM
[20] = biological target: Protein kinase C alpha (Homo sapiens) (UniProt P17252); test: Inhibition of PRKCA at 1 uM
[21] = biological target: Mitogen-activated protein kinase 3 (Homo sapiens) (UniProt P27361); test: Inhibition of MAPK3 at 1 uM
[22] = biological target: Mast/stem cell growth factor receptor Kit (Homo sapiens) (UniProt P10721); test: Inhibition of KIT at 1 uM
[23] = Drug level in tumor tissue of human A375 cells xenografted nude mouse at 25 mg/kg, po after 6 hrs; assay type: ADME, organism-based, Neoplasm, A-375; design: dose 25 mg/kg, route oral; conditions: read-out: Drug uptake
[24] = biological target: T1, Angiopoietin-1 receptor; test: Inhibition of TEK
[25] = biological target: Serine/threonine-protein kinase pim-1 (Homo sapiens) (UniProt P11309); test: Inhibition of PIM1 at 1 uM
[26] = Drug level in tumor tissue of human A375 cells xenografted nude mouse at 25 mg/kg, po after 24 hrs; assay type: ADME, organism-based, Neoplasm, A-375; design: dose 25 mg/kg, route oral; conditions: read-out: Drug uptake
[27] = biological target: Serine/threonine-protein kinase PLK1 (Homo sapiens) (UniProt P53350); test: Inhibition of PLK1 at 1 uM
[28] = biological target: Ephrin type-A receptor 1 (Homo sapiens) (UniProt P21709); test: Inhibition of EPHA1 at 1 uM
[29] = biological target: T2, Tyrosine-protein kinase ABL1 (Homo sapiens, UniProt P00519); test: Inhibition of ABL1 at 1 uM
[30] = biological target: Serine/threonine-protein kinase B-raf (Homo sapiens, UniProt P15056); test: Inhibition of BRAF
[31] = biological target: RAC-beta serine/threonine-protein kinase (Homo sapiens) (UniProt P31751); test: Inhibition of AKT2 at 1 uM
[32] = biological target: Platelet-derived growth factor receptor beta (Homo sapiens) (UniProt P09619); test: Inhibition of PDGFRB at 1 uM
[33] = biological target: T3, Tyrosine-protein kinase Yes (Homo sapiens, UniProt P07947); test: Inhibition of YES1
[34] = biological target: Tyrosine-protein kinase ZAP-70 (Homo sapiens) (UniProt P43403); test: Inhibition of ZAP70 at 1 uM
[35] = biological target: Proto-oncogene tyrosine-protein kinase receptor Ret (Homo sapiens, UniProt P07949); test: Inhibition of RET
[36] = biological target: Serine/threonine-protein kinase Chk1 (Homo sapiens) (UniProt O14757); test: Inhibition of CHEK1 at 1 uM
[37] = biological target: T2, Tyrosine-protein kinase ABL1; test: Inhibition of ABL1
[38] = biological target: Mitogen-activated protein kinase 14 (Homo sapiens, UniProt Q16539); conditions: 1 uM
Description: Inhibition of MAPK14 at 1 uM

[39] = biological target: Cyclin-dependent kinase 1/cyclin B (Homo sapiens) (UniProt P06493+P14635+Q8WWL7+O95067); test: Inhibition of CDK1/cyclin B at 1 uM; assay type: protein-complex assay
[40] = biological target: Platelet-derived growth factor receptor alpha (Homo sapiens) (UniProt P16234); test: Inhibition of PDGFRA at 1 uM
[41] = biological target: Protein kinase C delta type (Homo sapiens) (UniProt Q05655); test: Inhibition of PRKCD at 1 uM
[42] = biological target: Tyrosine-protein kinase JAK2 (Homo sapiens) (UniProt O60674); test: Inhibition of JAK2 at 1 uM
[43] = biological target: Receptor tyrosine-protein kinase erbB-2 (Homo sapiens) (UniProt P04626); test: Inhibition of ERBB2 at 1 uM
[44] = biological target: Tyrosine-protein kinase Lck (Homo sapiens, UniProt P06239); test: Inhibition of LCK
[45] = biological target: 3-phosphoinositide-dependent protein kinase 1 (Homo sapiens) (UniProt O15530); test: Inhibition of PDK1 at 1 uM
[46] = Inhibition of PRKA at 1 uM
[47] = biological target: T3, Tyrosine-protein kinase Yes; conditions: 1 uM
Description: Inhibition of YES1 at 1 uM

[48] = biological target: Epidermal growth factor receptor (Homo sapiens, UniProt P00533); conditions: 1 uM
Description: Inhibition of EGFR at 1 uM

[49] = biological target: Mitogen-activated protein kinase 1 (Homo sapiens) (UniProt P28482); test: Inhibition of MAPK1 at 1 uM
[50] = biological target: MAP kinase-activated protein kinase 2 (Homo sapiens) (UniProt P49137); test: Inhibition of MAPKAPK2 at 1 uM

Which inhibition [1] does the source give for `CN1C[C@@H]2C[C@H]1CN2c1cc(F)c(-c2ccnc3c(-c4cccc5[nH]ncc45)c(-c4ccncc4)nn23)c(F)c1` here?
The inhibition was 21%.

And the inhibition [2]?
Its inhibition is 81%.

What about the inhibition [3] of the same compound?
The inhibition was 66%.

What about the inhibition [4] of the same compound?
The inhibition was 39%.

What about the inhibition [5] of the same compound?
Its inhibition is “Active”.

And the inhibition [6]?
The inhibition was 4%.

And the inhibition [7]?
Its inhibition is 35%.

And the inhibition [8]?
Its inhibition is 8%.

And the IC50 [9]?
The IC50 was 24 nM.

What about the Vd [10] of the same compound?
The Vd was 4.7 L/kg.

And the inhibition [11]?
The inhibition was 25%.

What about the inhibition [12] of the same compound?
The inhibition was 5%.

And the inhibition [13]?
Its inhibition is 63%.

What about the IC50 [14] of the same compound?
The IC50 was 8.52 nM.

And the IC50 [15]?
The IC50 was 95.3 nM.

What about the inhibition [16] of the same compound?
Its inhibition is 7%.

What about the inhibition [17] of the same compound?
Its inhibition is 6%.

And the inhibition [18]?
The inhibition was 0%.

And the inhibition [19]?
The inhibition was 15%.

And the inhibition [20]?
The inhibition was 9%.

What about the inhibition [21] of the same compound?
The inhibition was 5%.

What about the inhibition [22] of the same compound?
The inhibition was 9%.

And the concentration at 6 h [23]?
The concentration at 6 h was 6.6 µM.

And the IC50 [24]?
The IC50 was 293 nM.

And the inhibition [25]?
Its inhibition is 5%.

What about the concentration at 24 h [26] of the same compound?
Its concentration at 24 h is 6.1 µM.

What about the inhibition [27] of the same compound?
The inhibition was 11%.

And the inhibition [28]?
Its inhibition is 84%.

And the inhibition [29]?
Its inhibition is 70%.

And the IC50 [30]?
The IC50 was 0.16 nM.

What about the inhibition [31] of the same compound?
The inhibition was 9%.

What about the inhibition [32] of the same compound?
The inhibition was 9%.

What about the IC50 [33] of the same compound?
The IC50 was 246 nM.

And the inhibition [34]?
The inhibition was 4%.

And the IC50 [35]?
Its IC50 is 160 nM.

What about the inhibition [36] of the same compound?
The inhibition was 0%.

What about the IC50 [37] of the same compound?
Its IC50 is 286 nM.

And the inhibition [38]?
The inhibition was 81%.

What about the inhibition [39] of the same compound?
Its inhibition is 0%.

And the inhibition [40]?
The inhibition was 5%.

What about the inhibition [41] of the same compound?
Its inhibition is 10%.

And the inhibition [42]?
Its inhibition is -6%.

And the inhibition [43]?
Its inhibition is 37%.

And the IC50 [44]?
Its IC50 is 505 nM.

And the inhibition [45]?
Its inhibition is 3%.

And the inhibition [46]?
The inhibition was 18%.

And the inhibition [47]?
Its inhibition is 68%.

What about the inhibition [48] of the same compound?
Its inhibition is 77%.

And the inhibition [49]?
The inhibition was 6%.

What about the inhibition [50] of the same compound?
The inhibition was -1%.
